Data reported in patent publication US20240092863A1, “ANTIMICROBIAL TARGET” (priority 2020, published 2024).
Where a SMILES comes first, the peptide text is derived from it. Bridges are numbered along the chain shown (N, C = ends). Where no end group is shown, it is not given here. [ ]: non-standard residue; d: D form. S5 = C=CCCC[C@](C)(N)C(=O)O

Experiments:
S. aureus [1] = assay: S. aureus adhesion to HaCaT human keratinocyte cells (bacterial adhesion assay, CFU); format: cell-based, Staphylococcus aureus; settings: 200 nM peptide; FIG. 1B
Protocol: HaCaT human keratinocyte cells were cultured in DMEM supplemented with 10% (v/v) foetal bovine serum. Cells were subcultured by trypsinisation. For bacterial adhesion assays, HaCaT cells (10,000 cells/well) were grown overnight in 96-well plates.
For infection assays, bacterial were cultured from a single agar plate colony overnight in 5 ml of the appropriate growth medium. Then cultures were harvested by centrifugation, washed with 10 ml PBS, re-suspended in growth medium and incubated to achieve an OD600 equivalent to 5×10^8 CFU/ml. Cultures were again harvested by centrifugation, washed twice with PBS and re-suspended in DMEM at an appropriate density.

S. aureus SH1000 [2] = settings: cited from earlier work
S. aureus [3] = settings: reference [7]; cited from earlier work
P. aeruginosa PA01 = assay: Stability to bacterial cultures (P. aeruginosa PA01), residual activity in infection assay on HaCaT; format: in vitro ADME, Pseudomonas aeruginosa; settings: 4 hrs incubation with growing culture
chymotrypsin = assay: Protease stability: chymotrypsin digestion, LC-MS; format: in vitro ADME; settings: 100 ug/ml peptide, chymotrypsin 2 mg/ml, 25° C., 1 hour
[4] = Protease stability: chymotrypsin digestion, LC-MS; format: in vitro ADME; settings: 100 ug/ml peptide, chymotrypsin 2 mg/ml, 25° C., 18 hours; read-out: peptide still undigested in chymotrypsin at 18 hours
trypsin = assay: Protease stability: trypsin digestion, LC-MS; format: in vitro ADME; settings: 100 ug/ml peptide, trypsin 2 mg/ml, 37° C., 1 hour
[5] = Protease stability: trypsin digestion, LC-MS; format: in vitro ADME; settings: 100 ug/ml peptide, trypsin 2 mg/ml, 37° C., 18 hours; read-out: peptide still undigested in trypsin at 18 hours
S. aureus SH1000 [6] = tested on: S. aureus SH1000
Protocol: Protease stability was assessed using trypsin, chymotrypsin and human serum. Peptides at 100 μg/ml were incubated in 100 mM ammonium bicarbonate+2 mM calcium chloride were digested using trypsin (2 mg/ml), chymotrypsin (2 mg/ml) or human serum (25% (v/v)) for 1 or 18 hours. Digestion was performed at 37° C. for trypsin and human serum, and 25° C. for chymotrypsin. Reaction was stopped with 2.5% formic acid for trypsin and chymotrypsin. Human serum proteins were precipitated with acetonitrile. Supernatants were analysed on LC-MS. Stability to bacterial proteases was also analysed in cultures of S. aureus SH100 and P. aeruginosa PA01. 20 nM peptides in Keratinocyte-Serum Free Medium (KFSM) were incubated with mid-log phase cultures of bacteria for 4 hours. Bacteria were then removed by centrifugation and the supernatants used in bacterial adhesion assays, as described below.
Human cells in 96-well plates were washed with 200 ul HBSS and incubated with 200 μl 5% (w/v) BSA for 1 hour at 37° C., washed twice with 200 μl HBSS prior to incubation for 1 hour at 37° C. with peptides diluted in DMEM, or DMEM alone for control well. After removal of peptide solutions, wells were infected for 1 hour at 37° C. with 50 μl bacteria suspended in DMEM at optimised multiplicities of infection (MOI). […]

S. aureus SH1000 [7] = assay: Mouse in vivo skin infection model; parameters: species or system Staphylococcus aureus; settings: mice, 200 nM peptide mixed with S. aureus SH1000 in a bandage on depilated skin; FIG. 9
Protocol: C57/Bl6 mice were shaved to produce a bare area of approximately 2×2 cm. Depilatory cream was applied to depilate this area. A bandage was applied that contained a saline solution containing 200 nM of mouse 800-CAP, its scrambled control or human 800ii, and S. aureus SH1000. After 5 days, the mice were sacrificed and the depilated skin processed to release bacteria. The infection was assessed as CFU, and normalised to untreated control mice (=100). The experiment was performed 3 times using groups of 3 mice for each condition. Data are shown as the means of each separate experiment. Significance of the difference from 100 was calculated using a one-sample t test.

## 1: synthetic peptide with helix-preserving Ala residues replacing Glu26/Arg29 (DAPQAETLKAIHYALN; Glu26/Arg29 mutant 800-Cap peptide) [compound 1]
S. aureus [1]
  inhibitory activity against S. aureus adhesion to human keratinocyte line HaCaT: no activity

## 6: synthetic peptide with helix-preserving Ala residues replacing Ile35/Leu39 (DEPQRETLKAAHYAAN; Ile35/Leu39 mutant 800-Cap peptide) [compound 6]
S. aureus [1]
  inhibitory activity against S. aureus adhesion to human keratinocyte line HaCaT: no activity

## 800: short peptide derived from the primary sequence of the tetraspanin CD9 large extracellular domain (EC2); previously published (EPQRETLKAIHYALN; 800 peptide sequence) [compound 800]
S. aureus SH1000 [2]; previously published (Ventress et al., 2016)
  activity against S. aureus adhesion to a wound model of human skin: active
S. aureus SH1000 [2]; reference [7]
  bacterial burden in a 3D model of human skin: effective in lowering bacterial burden
S. aureus [3]
  functional activity, time and dose dependence: functionally active in a time and dose-dependent manner
  reduction of adherence of Staphylococcus aureus binding to human keratinocyte cells: can reduce the adherence

## CC[C@H](C)[C@H](NC(=O)[C@H](C)NC(=O)[C@H](CCCCN)NC(=O)[C@H](CC(C)C)NC(=O)[C@]1(C)CCCC=CCCC[C@](C)(NC(=O)[C@H](CCC(=O)O)NC(=O)[C@@H](N)CC(=O)O)C(=O)N[C@@H](CCC(N)=O)C(=O)N[C@@H](CCCNC(=N)N)C(=O)N[C@@H](CCC(=O)O)C(=O)N1)C(=O)N[C@@H](Cc1c[nH]cn1)C(=O)N[C@@H](Cc1ccc(O)cc1)C(=O)N[C@@H](C)C(=O)N[C@@H](CC(C)C)C(=O)N[C@@H](CC(N)=O)C(=O)O [800i] (H-DE[S5]QRE[S5]LKAIHYALN-OH; staple 3-7; N-terminus and C-terminus assumed)
P. aeruginosa PA01
  resistance of peptide activity to P. aeruginosa PA01 culture: resistant

## CC[C@H](C)[C@@H]1NC(=O)[C@@](C)(NC(=O)[C@H](CCCCN)NC(=O)[C@H](CC(C)C)NC(=O)[C@@H](NC(=O)[C@H](CCC(=O)O)NC(=O)[C@H](CCCNC(=N)N)NC(=O)[C@H](CCC(N)=O)NC(=O)[C@@H]2CCCN2C(=O)[C@H](CCC(=O)O)NC(=O)[C@@H](N)CC(=O)O)[C@@H](C)O)CCCC=CCCC[C@@](C)(C(=O)N[C@@H](CC(C)C)C(=O)N[C@@H](CC(N)=O)C(=O)O)NC(=O)[C@H](Cc2ccc(O)cc2)NC(=O)[C@H](Cc2c[nH]cn2)NC1=O [800ii] (H-DEPQRETLK[S5]IHY[S5]LN-OH; staple 10-14; N-terminus and C-terminus assumed)
chymotrypsin
  digestion by chymotrypsin after 1 hour: not digested at all
[4]
  remaining at 18 h, 100 µg/ml: 20%
trypsin
  digestion by trypsin after 1 hour: not digested at all
[5]
  remaining at 18 h, 100 µg/ml: 50%
P. aeruginosa PA01
  resistance of peptide activity to P. aeruginosa PA01 culture: resistant

## DEPQRETLKAIHYALN [800-Cap]
S. aureus SH1000 [6]
  peptide activity degraded by incubation with S. aureus SH1000 culture: ~50%
chymotrypsin
  digestion by chymotrypsin after 1 hour: completely digested
trypsin
  digestion by trypsin after 1 hour: completely digested
P. aeruginosa PA01; residual activity on S. aureus SH1000 / HaCaT
  peptide activity degraded by incubation with P. aeruginosa PA01 culture: ~50%

## SEQ ID NO: 17: shorter form of peptide 800-Cap (DEPQRETL; first short form of 800-Cap)
S. aureus [1]
  inhibitory activity against S. aureus adhesion to human keratinocyte line HaCaT: little or no inhibitory activity

## SEQ ID NO: 18: shorter form of peptide 800-Cap (KAIHYALN; second short form of 800-Cap)
S. aureus [1]
  inhibitory activity against S. aureus adhesion to human keratinocyte line HaCaT: little or no inhibitory activity

## mouse equivalent of 800-CAP: the mouse equivalent of 800-CAP; probably SEQ ID NO: 6 (DEPQRETLKAIHMALD; listed as Mus musculus)
S. aureus SH1000 [7]
  bacterial load in skin after 5 days: significantly reduced

## peptide 7: synthetic peptide with helix-preserving Ala residues replacing Pro27/Thr31 (DEAQREALKAIHYALN; Pro27/Thr31 mutant 800-Cap peptide)
S. aureus [1]
  inhibitory activity against S. aureus adhesion to human keratinocyte line HaCaT: retained full activity
